Results on 4 compounds are retold here after patent US9980951B2, “Image guided therapy for cancer” (UNIVERSITY OF IOWA RESEARCH FOUNDATION, priority 2015, dated 2018).

The structures appear in SMILES notation. Values joined by “and” are separate entries in the source; they are usually repeats but may differ in a detail not shown here. Equal values may be shown once.

The test system of assay [1] is A375 melanoma cells. Nature of the assay: JC-1 mitochondrial membrane potential assay. As to conditions: A375, 10 μM, 1 h. The class given is cell-based, human. The source says:
(§1) JC-1 mitochondrial membrane potential assays were used to determine that TPVP derivatives are designed to accumulate in melanoma cell mitochondria and disrupt the membrane potential of melanoma cells relative to nonmalignant cells (FIG. 2).
(§2) Mitochondrial membrane potential is an important parameter of mitochondrial function. In healthy cells (with high mitochondrial potential), JC-1 spontaneously forms complexes known as J-aggregates that fluoresce in the red region. In unhealthy cells with a low mitochondria membrane potential or cells whose membrane integrity is disrupted with uncoupling agents (e.g., FCCP), JC-1 remains in the monomeric form, with fluorescence in the green region. Therefore, the ratio of Jaggregate to monomer fluorescence is an indicator of mitochondrial membrane potential and cellular health.
(§3) Experiments were performed using human metastatic BRAFV600E mutant A375 (ATCC CRL-1619) human melanoma cells, metastatic BRAFV600E mutant SK-Mel-3 (ATCC HTB-69) human melanoma cells isolated from a lymph node metastasis, and nonmetastatic normal human fibroblasts (NHFs) provided by the Coriell Institute (AG13442). All cells were cultured at 21% O2 at 37° C. in a humidified 5% CO2 incubator. Cells were detached with 0.25% trypsin-EDTA. A375 and NHF cells were cultured in high-glucose DMEM medium supplemented with 1% PenStrep and 10% FBS. SK-Mel-3 cells were cultured in high-glucose McCoy's 5A medium supplemented with 1% PenStrep and 15% FBS. All medium components were purchased from Gibco.
(§4) A375 cells were plated in a black, clear-bottom 96 well plate at a density of 1.5×10^4 cells per well. SK-Mel-3 and NHF cells were plated in a black, clear-bottom 96 well plate at a density of 2.5×10^4 cells […]. After 24 h, cells were treated with 2.5, 5.0, or 10 μM 18:2-TPVP or DPDVP for 1 h. Cells were then washed and incubated with 2.0 μM JC-1 (Cayman) in PBS containing 5 mM pyruvate (Gibco) for 1 h. Control dishes were treated with 1.0 μM FCCP (Sigma-Alrich) 30 min prior to measurement. Cells were washed and analyzed in PBS using a spectrophotometer at 530 and 590 nm.

Assay [2] deals with SK-Mel-3 melanoma cells. Nature of the assay: JC-1 mitochondrial membrane potential assay. The format is cell-based, human. As to conditions: SK-Mel-3, 10 μM, 1 h.
Excerpt: as §1, §2, §3, §4

Assay [3] relates to normal human fibroblasts (NHFs). The assay is described as follows: JC-1 mitochondrial membrane potential assay. As to conditions: 10 μM, 1 h. The class given is cell-based.
Excerpt: as §1, §2
Experiments were performed using human metastatic BRAFV600E mutant A375 (ATCC CRL-1619) human melanoma cells, metastatic BRAFV600E mutant SK-Mel-3 (ATCC HTB-69) human melanoma cells isolated from a lymph node metastasis, and nonmetastatic normal human fibroblasts (NHFs) provided by the Coriell Institute (AG13442). All cells were cultured at 21% O2 at 37° C. in a humidified 5% CO2 incubator. […]
A375 cells were plated in a black, clear-bottom 96 well plate at a density of 1.5×10^4 cells per well. […] Cells were washed and analyzed in PBS using a spectrophotometer at 530 and 590 nm.

Assay [4] has as its system A375 melanoma cells. Nature of the assay: Intracellular ATP measurement (CellTiter-Glo luciferase assay). The class given is cell-based, human. As to conditions: 24 h; for concentration of ATP relative to the untreated control: A375, 2.5, 5.0, or 10 μM. As for the experimental part:
(§5) TPVP derivatives embed in the mitochondria of malignant cells and increase the oxidation state relative to NHFs. Therefore, intracellular ATP levels were measured to determine the potential impact of TPVP-based treatment on cell viability (FIG. 4). This platereader-based luciferase assay is a selective method for determining the number of viable cells by quantifying the ATP-dependent oxygenation of luciferin. […] Specifically, A375 ATP levels were depleted from 1.5 mM to less than 0.8 mM after exposure to all three compounds at 10 μM.
as §3
(§6) A375 cells were plated in 60 mm culture dishes at a density of 1.5×10^5 cells per dish. SK-Mel-3 and NHF cells were plated in 60 mm culture dishes at a density of 2.5×10^5 cells per dish. After 48 h, cells were exposed to 2.5, 5.0 or 10 μM of PTVP, DPDVP, or 18:2-TPVP for 24 h and analyzed for intracellular ATP content using the CellTiter-Glo Luminescent Cell Viability Assay (Promega).

The test system of assay [5] is A375 melanoma cells. Nature of the assay: Clonogenic survival assay. The class given is cell-based, human. The settings on record: 24 h; for clonogenic survival relative to the untreated control: A375, 5.0, 7.5, and 10 μM. How it is done: (§7) To further test the hypothesis that TPVP derivatives can be designed to decrease viability in melanoma cells relative to normal cells, clonogenic survival assays were performed (FIG. 6). The clonogenic cell survival assay is used often as a measure of the ability of cells to proliferate indefinitely. In these studies, cells were exposed to varying concentrations of TPVP derivatives for 24 h. After exposure to cytotoxic compounds, cells were collected, counted, and reseeded at a low density. The cells then undergo a series of doublings, forming cell colonies. These colonies were then counted, and the resulting cell survival curve reports the dose of the agent used to produce an insult and the fraction of cells retaining their ability to reproduce. […] Specifically, 18:2-TPVP decreases clonogenic survival to <50% at 5.0 μM for both A375 and SK-Mel-3 cells and <20% at 7.5 μM.
as §3
(§8) A375 cells were plated in 60 mm culture dishes at a density of 1.5×10^5 cells per dish. SKMel-3 and NHF cells were plated in 60 mm culture dishes at a density of 2.5×10^5 cells per dish. After 48 h, cells were treated with 1.0, 2.5, 5.0, 7.5, or 10 μM of PTVP, DPDVP, or 18:2-TPVP for 24 h. After the exposure period, cells were collected, counted, and plated at either 500 (A375 and NHF) or 3000 (SK-Mel-3) cells per 60 mm dish. Following a 2 week incubation, medium was removed and colonies fixed with ethanol and stained with Coommassie Brilliant Blue. Data were normalized to each untreated control, and the surviving fraction was reported.

For assay [6], the system named is SK-Mel-3 melanoma cells. Nature of the assay: Clonogenic survival assay. The class given is cell-based, human. As to conditions: 24 h; for clonogenic survival relative to the untreated control: SK-Mel-3, 5.0, 7.5, and 10 μM. As for the experimental part: as §7, §3, §8
Assay [7] has as its system A375 melanoma cells. The assay is described as follows: Confocal microscopy, mitochondrial accumulation and colocalization with Mito Tracker Red. The format is cell-based, human. The settings on record: A375, 1 μM, 3 h. How it is done: (§9) Confocal microscopy was used to determine that 10-TPVP preferentially accumulates in the mitochondria of melanoma cells and fluoresces upon aggregation in mitochondrial membranes of melanoma cells relative to nonmalignant cells (FIG. 1). […] NHF cells have a basal level of 10-TPVP accumulation, supporting the hypothesis that TPVP derivatives preferentially accumulate by targeting the hyperpolarized mitochondrial membrane (FIG. 1; Column II).
as §3
(§10) A375, SK-Mel-3, and NHF cells were cultured at a density of 2.5×104, 5×104, or 7.5×104, respectively, on a 4 well glass chamber slide for 24 h prior to exposure to test compounds. […]

In assay [8] the test system is SK-Mel-3 melanoma cells. The description is as above. The format is cell-based, human. The settings on record: SK-Mel-3, 1 μM, 3 h. How it is done: as §9, §3, §10
The subject of assay [9] is normal human fibroblasts (NHFs). Described as above. The class given is cell-based. The settings on record: 1 μM, 3 h. As for the experimental part:
as §9, §3, §10

Assay [10] relates to A375 melanoma cells. The assay is described as follows: DHE oxidation. As to conditions: A375, 10 μM, 1 h, normalized to untreated control. The format is cell-based, human.
Excerpt: (§11) Oxidation-sensitive dihydroethidium (DHE) was used to determine if mitochondrial-accumulated TPVP derivatives alter the oxidation state of melanoma cells (FIG. 3). DHE is a blue-fluorescent superoxide-sensitive probe that accumulates in the cytosol of healthy cells. However, upon reaction with superoxide, DHE intercalates with DNA and forms a red-fluorescent product (2-hydroxyethidium). Therefore, the shift to red fluorescence is an indicator of the change in the redox state of the cell.
as §3
(§12) A375 cells were plated in a black, clearbottom 96 well plate at a density of 1.5×10^4 cells per well. […] Cells were analyzed using a spectrophotometer at 590 nm.

For assay [11], the system named is SK-Mel-3 melanoma cells. The assay is described as follows: DHE oxidation. The class given is cell-based, human. As to conditions: SK-Mel-3, 10 μM, 1 h, normalized to untreated control.
Excerpt: as §11, §3, §12

Assay [12] relates to normal human fibroblasts (NHFs). The assay is described as follows: DHE oxidation. The class given is cell-based. As to conditions: 10 μM, 1 h.
Excerpt: as §11, §3, §12

The test system of assay [13] is SK-Mel-3 melanoma cells. The assay is described as follows: Intracellular ATP measurement (CellTiter-Glo luciferase assay). As to conditions: SK-Mel-3, 5.0 μM and 10 μM, 24 h. The format is cell-based, human. How it is done:
as §5, §3, §6
For orientation: In ATP-based viability assays light output follows the ATP content of the culture.

Assay [14] deals with normal human fibroblasts (NHFs). Nature of the assay: Clonogenic survival assay. The format is cell-based. As to conditions: NHF, 5.0 μM, 24 h. How it is done: as §7, with “μM. […]” for “μM.”
A375 cells were plated in 60 mm culture dishes at a density of 1.5×10^5 cells per dish. […] After the exposure period, cells were collected, counted, and plated at either 500 (A375 and NHF) or 3000 (SK-Mel-3) cells per 60 mm dish. […]

As for `CCCCCCCCCC[n+]1ccc(C(=C(c2ccccc2)c2ccccc2)c2cc[n+](CCCCCCCCCC)cc2)cc1.[Br-].[Br-]` [DPDVP, 4,4′-(2,2-Diphenylethene-1,1-diyl)bis(1-decylpyridin-1-ium) Bromide], the “decrease of JC-1 aggregate to monomer fluorescence ratio” value in the assay on A375 melanoma cells [1] is 50%; in the assay on SK-Mel-3 melanoma cells [2] it was 30%; in assay [3] it was 10%. In addition, the “concentration of ATP relative to the untreated control” value with A375 melanoma cells [4] is listed as “significantly decreases”. Further, the “clonogenic survival relative to the untreated control” value in the assay on A375 melanoma cells [5] and in the assay on SK-Mel-3 melanoma cells [6] was “significantly decrease” in each case.

In the case of `CCCCCCCCCC[n+]1ccc(C(=C(c2ccccc2)c2ccccc2)c2ccccc2)cc1.[Br-]` [Compound 10-TPVP, 1-Decyl-4-(1,2,2-triphenylvinyl)pyridin-1-ium Bromide], the “accumulation in cells by confocal microscopy” value in the assay with A375 melanoma cells [7] and in the assay on SK-Mel-3 melanoma cells [8] was “easily observable” each time. The “accumulation in mitochondria by confocal microscopy” value in [9] is given as “does not significantly accumulate”. The “increase of DHE oxidation” value in the assay on A375 melanoma cells [10] worked out at 3 fold; with SK-Mel-3 melanoma cells [11] it was 2 fold. The DHE fluorescence intensity result in [12] is recorded as “does not significantly alter”.

Take `CCCCCCCCCC[n+]1ccc(C(=C(c2cc[n+](CCCCCCCCCC)cc2)c2cc[n+](CCCCCCCCCC)cc2)c2ccccc2)cc1.[Br-].[Br-].[Br-]` [PTVP, 4,4′,4″-(2-Phenylethene-1,1,2-triyl)tris(1-decylpyridin-1-ium) Bromide]: the “concentration of ATP relative to the untreated control” value with A375 melanoma cells [4] is listed as “significantly decreases”. For the same compound, the “clonogenic survival relative to the untreated control” value with A375 melanoma cells [5] and with SK-Mel-3 melanoma cells [6] was “significantly decrease” in each case.

In the case of `CCCCC/C=C\C/C=C\CCCCCCCC[n+]1ccc(C(=C(c2ccccc2)c2ccccc2)c2ccccc2)cc1.[Br-]` [18:2-TPVP, 1-((9Z,12Z)-Octadeca-9,12-dien-1-yl)-4-(1,2,2-triphenylvinyl)pyridin-1-ium Bromide], the entries for the “decrease of JC-1 aggregate to monomer fluorescence ratio” value (in the assay on A375 melanoma cells [1]; with SK-Mel-3 melanoma cells [2]; in [3]) were 55%, 40% and 20%, respectively. The “concentration of ATP relative to the untreated control” value in the assay with A375 melanoma cells [4] was “significantly decreases”. The “intracellular ATP relative to NHFs” value in the assay on A375 melanoma cells [4] (A375, all concentrations (1, 5, or 10 μM)) is recorded as “significantly decreases”; in the assay on SK-Mel-3 melanoma cells [13], “significantly decreases”. Moreover, the clonogenic survival in the assay on A375 melanoma cells [5] (A375, 5.0 μM) is < 50% and 40%; in the assay with A375 melanoma cells [5] (A375, 7.5 μM), less than 20%; in the assay on SK-Mel-3 melanoma cells [6] (SK-Mel-3, 5.0 μM), < 50% and 30%; in the assay on SK-Mel-3 melanoma cells [6] (SK-Mel-3, 7.5 μM) it was less than 20%; in assay [14], 75%. The “clonogenic survival relative to NHFs” value in the assay on A375 melanoma cells [5] (A375, 2.5, 5.0, 7.5, and 10 μM) is given as “significant decrease”; in the assay with SK-Mel-3 melanoma cells [6] (SK-Mel-3, 2.5, 5.0, 7.5, and 10 μM), “significant decrease”. Besides, the “clonogenic survival relative to the untreated control” value with A375 melanoma cells [5] and with SK-Mel-3 melanoma cells [6] was “significantly decrease” throughout.
